Measured values from patent US5389615A, “Peptides and pharmaceutical composition thereof in the treatment of pain” (British Technology Group Ltd., priority 1988, dated 1995).
Residues, ends and D or L forms follow the SMILES beside them.

Columns and labels:
[1] = test system: hyperalgesia evoked by PGE2; test: Rat paw pressure test, hyperalgesia evoked by PGE2; assay type: in vivo; conditions: for DELTA REACTION TIME: 3 h after PGE2, control 16.8
febrile rabbits = conditions: Richards and Lipton, Peptides 5 (1984) 815-817; cited from earlier work
[2] = test system: hyperalgesia evoked by DbcAMP; test: Rat paw pressure test, hyperalgesia evoked by DbcAMP; assay type: in vivo; conditions: 200 μg/150 g rat ip 1 h before DbcAMP (100 μg/paw) ipl
[3] = test system: hyperalgesia evoked by IL-1β; test: Modified Randall-Sellito rat paw pressure test, hyperalgesia evoked by IL-1β; assay type: in vivo; conditions: for DELTA REACTION TIME: 3h after IL-1β, control 23.9
Protocol: The hyperalgesic activity of IL-1β was investigated by a modified Randall-Sellito rat paw pressure test (Ferreira et al, Eur. J. Pharacol. 53, 39-48, 1978).
The IL-1β was given either intraplantar (ipl, injection volume=0.1 ml) or intraperitoneally (ip, injection volume=0.3 ml).
The intensity of hyperalgesia was quantified as the variation of the reaction time (Δ reaction time, sec) obtained by subtracting the value measured 1,2,3 or 4h after administration of the hyperalgesic agent from the pre-injection control reaction time (zero time). The experimenter was unaware of the group treatments.
The vertical bars are standard errors of the means (s.e.m's) of values obtained in groups of 5 rats.
Each symbol or histogram represents the mean response of 5 animals per treatment group. Vertical bars are s.e.m's.
The data are means±s.e.m.'s of 5 animals per treatment group.
Each symbol represents the mean response of 5 animals per treatment group. Vertical bars are s.e.m.'s.
Treatments were given ip, lh before Il-1β, also given ip. There were 5 animals per treatment group.
Delta reaction time was measured 3h after Il-1β administration.
The Control was II-1β (0.05U), given ip.

[4] = 20 μg/150 g rat ip 1h before PGE2 ipl
[5] = 50 μg/150 g rat ip 1h before PGE2 ipl
[6] = 100 μg/150 g rat ip 1h before PGE2 ipl
[7] = 200 μg/150 g rat ip 1h before PGE2 ipl
[8] = 20 μg/150 g rat ip 1h before IL-1β (0.05U) ip
[9] = 50 μg/150 g rat ip 1h before IL-1β (0.05U) ip
[10] = 100 μg/150 g rat ip 1h before IL-1β (0.05U) ip
[11] = 200 μg/150 g rat ip 1h before IL-1β (0.05U) ip

CC(C)[C@H](NC(=O)[C@@H]1CCCN1C(=O)[C@@H](N)CCCCN)C(=O)O [KPV, Lys-Pro-Val] (H-Lys-Pro-Val-OH)
% change of delta reaction time vs control (=100%) [1, 4]: -11.3%
DELTA REACTION TIME [1, 4]: 14.9 ± 0.4 s
% change of delta reaction time vs control (=100%) [1, 5]: -22.6%
DELTA REACTION TIME [1, 5]: 13.0 ± 0.3 s
% change of delta reaction time vs control (=100%) [1, 6]: -41.1%
DELTA REACTION TIME [1, 6]: 9.9 ± 0.2 s
% change of delta reaction time vs control (=100%) [1, 7]: -53.6%
DELTA REACTION TIME [1, 7]: 7.8 ± 0.6 s
ED50 antagonising PGE2 evoked hyperalgesia ([1]; rats): approximately 170 μg/150 g rat
antagonism of hyperalgesia evoked by PGE2 ([1]; rats): antagonize hyperalgesia evoked by PGE2
antipyretic effect (febrile rabbits): antipyretic effect
% change of delta reaction time vs control (=100%) [2]: -8.1%
DELTA REACTION TIME ([2]; 3 h after DbcAMP, control 17.2): 15.8 ± 0.3 s
% change of delta reaction time vs control (=100%) [3, 8]: -21.3%
DELTA REACTION TIME [3, 8]: 18.8 ± 0.3 s
% change of delta reaction time vs control (=100%) [3, 9]: -52.7%
DELTA REACTION TIME [3, 9]: 11.3 ± 0.5 s
% change of delta reaction time vs control (=100%) [3, 10]: -69.9%
DELTA REACTION TIME [3, 10]: 7.2 ± 0.6 s
% change of delta reaction time vs control (=100%) [3, 11]: -83.7%
DELTA REACTION TIME [3, 11]: 3.9 ± 0.3 s
ED50 antagonising IL-1β evoked hyperalgesia ([3]; rats): 70 μg/150 g rat
antagonism of hyperalgesia evoked by IL-1β ([3]; rats, peptide given before IL-1β): more potent antagonists of I1-1β-evoked hyperalgesia than Lys-D-Pro-Thr
